In patent publication US9713651B2, “Compositions, methods, and systems for the synthesis and use of imaging agents” (Lantheus Medical Imaging, Inc., priority 2012, dated 2017):
One block for each compound: values may come before it.

Columns and labels:
hepatocytes = assay: Metabolic profiling of imaging agents in cryopreserved hepatocytes (HPLC with radiodetection); type: in vitro ADME; settings: hepatocytes 1×10^6 cells/mL, 37° C./5% CO2; species and incubation time not given
Procedure: Cryopreserved hepatocytes were purchased from Celsis/In Vitro Technologies, Inc. (Baltimore, Md.) and stored at −150° C. prior to use. Multiple lots of hepatocytes for human (mixed sexes 5-donor pool), primate (male, rhesus monkey), dog (male, beagle), rabbit (male, New Zealand white) and rat (male, Sprague-Dawley) were used. On the day of the study, hepatocytes in cryopreserved vials were vented to release any liquid N2 then placed into a 37° C. water bath for 75-90 seconds to thaw. The hepatocytes were transferred into pre-warmed KHB and centrifuged for 5 min at 50×g. The supernatant was discarded and the hepatocytes re-suspended in KHB at a concentration of 1×10^6 cells/mL. Cell viability was confirmed by Trypan blue exclusion.
Test compounds were incubated in hepatocytes (1×10^6 cells/mL; 0.5 mL) were incubated for 0, 15, 30, 60 or 180 min at 37° C./5% CO2 then transferred directly into acetonitrile (1.0 mL), vortexed for 30 s and centrifuged at 2500×g for 20 min. The supernatant was then transferred to a new centrifuge tube, acetonitrile evaporated under a stream of nitrogen in a heating block at 37° C. and, following re-constitution in water, assayed by HPLC with radiodetection.
Extracted samples and standards were analyzed on an Agilent 1100 HPLC (Agilent Technologies, Burlington, Mass.) using a Phenomenex Luna C18 column (5μ; 4.6×150 mm), maintained at ambient temperature (25° C.), and a flow rate of 1.0 mL/min. Mobile phase A contained 0.1% formic acid in water, and mobile phase B contained 0.1% formic acid in acetonitrile. A linear gradient from 5 to 90% B over 15 min was used for elution. A 5 min post-time of 5% B was used to re-equilibrate the column. Radioactive products were recorded using in-line γ- or β-flow detectors (INUS, Tampa, Fla.).

[1] = Tissue distribution of 18F imaging agents in rats; type: in vivo, Male Sprague Dawley rats; settings: rat, iv tail vein ~15 μCi, ± SEM
Procedure: Anesthetized (sodium pentobarbital at 50 mg/kg, ip or isoflurane gas inhalation) Male Sprague Dawley rats (250-350 g) received an iv injection of the imaging agent (˜15 μCi) via the tail vein. At 15 or 60 min post injection, the animals were euthanized and the required tissue samples harvested. All samples were then weighed and counted for radioactivity (Wallac Wizard 1480 or Packard Cobra II Autogamma); regional tissue uptake of the imaging agent was thus expressed as a percentage of the total injected dose per gram of tissue (% ID/g).
The generic structure depicted below highlights specific structural features evaluated during distribution experiments.

% Parent Remaining (hepatocytes): 20%
SMILES: CC(C)n1ncc(OCc2ccc(COCCF)cc2)c(Cl)c1=O [Example 1, 4-chloro-5-((4-((2-fluoroethoxy)methyl)benzyl)oxy)-2-isopropylpyridazin-3(2H)-one]

% Parent Remaining (hepatocytes): 73%
SMILES: [2H]C([2H])(OCCF)c1ccc(COc2cnn(C(C)(C)C)c(=O)c2Cl)cc1 [Example 9, 2-(tert-butyl)-4-chloro-5-((4-((2-fluoroethoxy)-d2-methyl)benzyl)oxy)pyridazin-3(2H)-one]

% Parent Remaining (hepatocytes): 20%
SMILES: CC(OCCF)c1ccc(COc2cnn(C(C)(C)C)c(=O)c2Cl)cc1 (centres unmarked) [Example 16, 2-(tert-butyl)-4-chloro-5-((4-(1-(2-fluoroethoxyl)ethyl)benzyl)oxy)pyridazin-3(2H)-one]

% Parent Remaining (hepatocytes): 71%
SMILES: CC(C)(C)n1ncc(OCc2ccc(OCCCF)c(Cl)c2)c(Cl)c1=O [Example 25, 2-(tert-butyl)-4-chloro-5-((3-chloro-4-(3-fluoropropoxyl)benzyl)oxy)pyridazin-3(2H)-one]

% Parent Remaining (hepatocytes): 30%
SMILES: CC(C)(C)n1ncc(OCc2cccc(COCCF)c2)c(Cl)c1=O [Example 35, 2-(tert-butyl)-4-chloro-5-((3-((2-fluoroethoxy)methyl)benzyl)oxy)pyridazin-3(2H)-one]

% Parent Remaining (hepatocytes): 34%
SMILES: Cc1c(OCc2ccc(COCCF)cc2)cnn(C(C)(C)C)c1=O [Example 40]

% Parent Remaining (hepatocytes): 63%
SMILES: CC(C)(C)n1ncc(OCc2ccc(C#CCCF)cc2)c(Cl)c1=O [Example 43, 2-(tert-butyl)-4-chloro-5-((4-(4-fluorobut-1-yn-1-yl)benzyl)oxy)pyridazin-3(2H)-one]

% Parent Remaining (hepatocytes): 19%
SMILES: CC(C)(C)n1ncc(OCc2ccc(C(=O)OCCF)cc2)c(Cl)c1=O [Example 45, 2-fluoroethyl 4-(((1-(tert-butyl)-5-chloro-6-oxo-1,6-dihydropyridazin-4-yl)oxy)methyl)benzoate]

% Parent Remaining (hepatocytes): 95%
SMILES: CC(C)(C)n1ncc(OCc2ccc(-c3cnc(F)nc3)cc2)c(Cl)c1=O [Example 48C, 2-(tert-butyl)-4-chloro-5-((4-(2-fluoropyrimidin-5-yl)benzyl)oxy)pyridazin-3(2H)-one]

% Parent Remaining (hepatocytes): 31%
SMILES: CC(C)(C)n1ncc(OCc2ccc(C(=O)OCCCF)cc2)c(Cl)c1=O [Example 57B, 3-fluoropropyl 4-(((1-(tert-butyl)-5-chloro-6-oxo-1,6-dihydropyridazin-4-yl)oxy)methyl)benzoate]

% Parent Remaining (hepatocytes): 6%
SMILES: CC(C)(C)n1ncc(CCc2ccc(COCCF)cc2)c(Cl)c1=O [Example 61]

SMILES: CC(C)(C)n1ncc(OCc2ccc([Si](F)(C(C)(C)C)C(C)(C)C)cc2)c(Cl)c1=O [Example 62B, 2-(tert-butyl)-4-chloro-5-((4-(di-tert-butylfluorosilyl)benzyl)oxy)pyridazin-3 (2H)-one]
% Parent Remaining (hepatocytes): 98%

Blood, imaging agent distribution at 15 min ([1]; 15 min post injection): 0.53 ± 0.13 % ID/g
Brain, imaging agent distribution at 15 min ([1]; 15 min post injection): 0.55 ± 0.31 % ID/g
Femur, imaging agent distribution at 15 min ([1]; 15 min post injection): 0.52 ± 0.19 % ID/g
Heart, imaging agent distribution at 15 min ([1]; 15 min post injection): 2.54 ± 0.20 % ID/g
Kidney, imaging agent distribution at 15 min ([1]; 15 min post injection): 0.79 ± 0.07 % ID/g
Liver, imaging agent distribution at 15 min ([1]; 15 min post injection): 0.96 ± 0.10 % ID/g
Lung, imaging agent distribution at 15 min ([1]; 15 min post injection): 0.97 ± 0.13 % ID/g
Muscle, imaging agent distribution at 15 min ([1]; 15 min post injection): 0.24 ± 0.04 % ID/g
Spleen, imaging agent distribution at 15 min ([1]; 15 min post injection): 0.35 ± 0.05 % ID/g
Blood, imaging agent distribution at 60 min ([1]; 60 min post injection): 0.73 ± 0.16 % ID/g
Brain, imaging agent distribution at 60 min ([1]; 60 min post injection): 2.33 ± 0.12 % ID/g
Femur, imaging agent distribution at 60 min ([1]; 60 min post injection): 0.43 ± 0.03 % ID/g
Heart, imaging agent distribution at 60 min ([1]; 60 min post injection): 0.55 ± 0.06 % ID/g
Kidney, imaging agent distribution at 60 min ([1]; 60 min post injection): 0.43 ± 0.04 % ID/g
Liver, imaging agent distribution at 60 min ([1]; 60 min post injection): 0.43 ± 0.04 % ID/g
Lung, imaging agent distribution at 60 min ([1]; 60 min post injection): 1.03 ± 0.22 % ID/g
Muscle, imaging agent distribution at 60 min ([1]; 60 min post injection): 0.31 ± 0.04 % ID/g
Spleen, imaging agent distribution at 60 min ([1]; 60 min post injection): 0.26 ± 0.03 % ID/g
SMILES: CC(C)(C)n1ncc(CCc2ccc(COCCF)cc2)c(Cl)c1=O [Example 67M]

SMILES: CC(C)(C)n1ncc(OCc2ccc([Si](F)(C(C)(C)C)C(C)(C)C)cc2)c(Cl)c1=O [Example 67N]
Blood, imaging agent distribution at 15 min ([1]; 15 min post injection): 0.22 ± 0.04 % ID/g
Brain, imaging agent distribution at 15 min ([1]; 15 min post injection): 0.03 ± 0.00 % ID/g
Femur, imaging agent distribution at 15 min ([1]; 15 min post injection): 0.14 ± 0.02 % ID/g
Heart, imaging agent distribution at 15 min ([1]; 15 min post injection): 0.65 ± 0.09 % ID/g
Kidney, imaging agent distribution at 15 min ([1]; 15 min post injection): 0.51 ± 0.09 % ID/g
Liver, imaging agent distribution at 15 min ([1]; 15 min post injection): 4.91 ± 0.49 % ID/g
Lung, imaging agent distribution at 15 min ([1]; 15 min post injection): 1.31 ± 0.24 % ID/g
Muscle, imaging agent distribution at 15 min ([1]; 15 min post injection): 0.06 ± 0.00 % ID/g
Spleen, imaging agent distribution at 15 min ([1]; 15 min post injection): 3.47 ± 0.80 % ID/g

Blood, imaging agent distribution at 15 min ([1]; 15 min post injection): 0.07 ± 0.03 % ID/g
Brain, imaging agent distribution at 15 min ([1]; 15 min post injection): 0.36 ± 0.04 % ID/g
Femur, imaging agent distribution at 15 min ([1]; 15 min post injection): 0.27 ± 0.02 % ID/g
Heart, imaging agent distribution at 15 min ([1]; 15 min post injection): 2.68 ± 0.35 % ID/g
Kidney, imaging agent distribution at 15 min ([1]; 15 min post injection): 1.35 ± 0.14 % ID/g
Liver, imaging agent distribution at 15 min ([1]; 15 min post injection): 0.99 ± 0.06 % ID/g
Lung, imaging agent distribution at 15 min ([1]; 15 min post injection): 0.37 ± 0.15 % ID/g
Muscle, imaging agent distribution at 15 min ([1]; 15 min post injection): 0.28 ± 0.02 % ID/g
Pancreas, imaging agent distribution at 15 min ([1]; 15 min post injection): 0.55 ± 0.10 % ID/g
Spleen, imaging agent distribution at 15 min ([1]; 15 min post injection): 0.31 ± 0.09 % ID/g
Blood, imaging agent distribution at 60 min ([1]; 60 min post injection): 0.03 ± 0.00 % ID/g
Brain, imaging agent distribution at 60 min ([1]; 60 min post injection): 0.36 ± 0.03 % ID/g
Femur, imaging agent distribution at 60 min ([1]; 60 min post injection): 0.37 ± 0.05 % ID/g
Heart, imaging agent distribution at 60 min ([1]; 60 min post injection): 2.46 ± 0.27 % ID/g
Kidney, imaging agent distribution at 60 min ([1]; 60 min post injection): 0.83 ± 0.08 % ID/g
Liver, imaging agent distribution at 60 min ([1]; 60 min post injection): 0.83 ± 0.17 % ID/g
Lung, imaging agent distribution at 60 min ([1]; 60 min post injection): 0.15 ± 0.03 % ID/g
Muscle, imaging agent distribution at 60 min ([1]; 60 min post injection): 0.39 ± 0.04 % ID/g
Pancreas, imaging agent distribution at 60 min ([1]; 60 min post injection): 0.38 ± 0.02 % ID/g
Spleen, imaging agent distribution at 60 min ([1]; 60 min post injection): 0.11 ± 0.02 % ID/g
SMILES: CC(C)(C)n1ncc(OCc2ccc(Oc3cccnc3F)cc2)c(Cl)c1=O [Example 67O]
